According to publication PMC11093748, “De novo identification of CD4^+ T cell epitopes” (Nature Methods, 2024):

System: GSE.20D11 TCR
Assay: HLA-DQ8 SABR-II (+ HLA-A2.1 SABR) library screen, enrichment score
Type: cell-based, human
Conditions: combined class I and II library
Excerpt: To test whether HLA-DQ8 SABR-II could be used for antigen discovery, we curated a list of insulin B, insulin C and HIP epitopes published by Wiles et al.[58] and cloned them into the DQ8 SABR-II backbone using the same pooled cloning strategy as the I-Ag7 SABR-II library (Supplementary Table 2). Furthermore, we combined SABR-I (the HLA-A*0201 library reported in our previous work[27]) and SABR-II libraries at a cellular level and screened against the GSE.20D11 TCR.
To generate the I-Ag7 restricted SABR library, we combined all Immune Epitope Database epitopes with a published immunopeptidome generated by Wan et al.[51]. Sequences were filtered remove all post-translational modifications except deamidation and HIPs and trimmed between 9–25 amino acid lengths. For the insulin C HIP and HLA-DQ8 library, non-contiguous epitopes from Wiles et al.[66] as well as all Immune Epitope Database epitopes were combined to generate the epitope list. Epitope sequences were back-translated using the backtranslate_fast.py script.
For SABR library screens, 3 × 10^6 NFAT–GFP Jurkat cells expressing the SABR library were labeled with CellTrace Violet (BioLegend) according to the manufacturer’s protocol before incubation with 3 × 10^6 Jurkat cells expressing the TCR of interest. These mixtures were incubated in a six-well plate for 16–20 h. Cells were stained with anti-CD69-APC-Cy7 where indicated (BioLegend) and the top 1–2% of GFP^+CD69^+ cells were sorted for genomic DNA extraction, indexing and sequencing (see below). Multiplexed assays were scaled on a per-TCR basis (for example 3 × 10^6 for each of three TCRs against 9 × 10^6 library cells). For single SABR assays, unless otherwise defined, 5 × 10^5 SABR expressing NFAT–GFP Jurkat cells (or 5KC cells) were labeled with CellTrace Violet (BioLegend) according to the manufacturer’s protocol before incubation with 5 × 10^5 TCR-expressing Jurkat cells (or 5KC cells) in a round-bottom 96-well plate for 16–20 h. Cells were stained with anti-CD69-APC-Cy7 when indicated and acquired on the Attune NxT flow cytometer (Thermo Fisher Scientific). All flow analysis was performed using FlowJo (BD). For Daudi cell co-culture, 1 × 10^6 Jurkat cells expressing the TCR of interest were incubated with 1 × 10^6 Daudi cells expressing a SABR of interest for 3 days. On day 3, cells were labeled with anti-RT1B-PE and anti-Fas-APC-Cy7 before being acquired on the Attune NxT flow cytometer.
Genomic DNA was extracted from sorted cells immediately after sorting, using the PureLink genomic DNA extraction kit (Life Technologies). The integrated SABR vectors were amplified with KOD polymerase (Millipore) and two rounds of amplification. In the first round, IDT-UD-SABR-C2-F and IDT-UD-SABR-C2-R primers were used to amplify the epitope. In the second round, UDI0001-R and UDI0001-F primers (representative of index 1) were used to add Illumina unique dual indexes (UDIs) to the amplicons. A different UDI was used for each sample. The reactions were pooled and purified with the NucleoSpin gel and PCR purification kit (Takara). The purified PCR product was checked before sequencing using 2% agarose gel and subjected to sequencing on a HiSeq4000 (Fulgent Genetics). Unaligned reads generated by the sequencer were stored in FASTQ files. FASTQ files were concatenated to generate one file for read1 and read2 each. The sequences were demultiplexed into individual indexes using demultiplex_dual.py. Epitopes were extracted and scored using epitope_extract_fastq_v1.1.py and merge_counts_split_v2.1.py. The ES was calculated using Microsoft Excel (Microsoft) workbooks.

## SHLVEALYLVCGERG
  enrichment in screen (in words): enriched at a high confidence level
